US20210228748A1, “IN VIVO STABLE HG-197(M) COMPOUNDS, METHOD FOR THE PRODUCTION THEREOF AND USE THEREOF IN NUCLEAR MEDICAL DIAGNOSTICS AND ENDORADIONUCLIDE THERAPY (THERANOSTICS)” (HELMHOLTZ-ZENTRUM DRESDEN - […].V., priority 2017, published 2021)
“Also recorded” adds a separate entry of the source.

Legend:
[1] = Human serum stability assay (SDS-PAGE autoradiograph); type: in vitro ADME; conditions: incubated with human serum 1 h at 37° C., pH 7.4, non-reducing SDS-PAGE
Protocol: FIGS. 4A and 4B show stability testing for compound 3*, namely the analysis of ^197(m)Hg-incorporation into human serum proteins by SDS-PAGE (20% SDS-polyacrylamide gel autoradiograph (FIG. 4A), showing 197(m)Hg-labeled bands, and Coomassie staining (FIG. 4B), showing bands of human serum proteins; Lane 1: ^197(m)>Hg-radiolabeled bispidine 3*. Lane 2: ^197(m)Hg-radiolabeled EDTA. M: molecular-weight size marker).
Human serum “off the clot” (5 ml) stored at −20° C. was slowly thawed on ice and filtered using syringe filters with a pore size of 0.2 μm. Two aliquots of filtered serum (2×220 μl) were mixed with 1 M HEPES/NaOH buffer (pH 7.4, 2×45 μl). Separately, 2×200 μl solution (1:1 EtOH:H2O, pH 6) of 3* (˜4 MBq) and 197(m)HgCl2/EDTA (˜5 MBq, 10 μg EDTA) had 1 M HEPES/NaOH buffer (pH 8.0, 2×20 μl) added to increase solution pH to 7.4. Then 135 μl of each 197(m)Hg-radiolabeled sample was added to one of the previously prepared serum/buffer solutions (265 μl) and incubated for 1 h at 37° C. 50 μl aliquots were then taken and mixed with 50 μl of 2× Laemmli sample buffer (Bio-Rad Laboratories), N.B. no reducing agent was added and the samples were not heated. The mixtures were then analyzed by non-reducing SDS-PAGE with acrylamide concentrations of 5% in the stacking gel and 20% in the resolving gel. 2 μl of each sample were loaded into each gel well. […]

[2] = Stability test with excess of sulfur-containing competitors (radio-TLC); type: physicochemical
Protocol: (§1) After pH-adjustment of the hydrochloric acid solution of [197(m)Hg]HgCl2(aq) (˜55 MBq, 20 μl, pH 1), by addition of 0.5 M HEPES buffer (pH 8, 200 μl), EtOH (200 μl), 6 M NaOH(aq) (11 μl), and 1 M NaOH(aq) (2 μl), a 1 mg/ml acetonitrile solution of 2 (12 μl, 14 nmol) was added. This solution (pH 6, 445 μl) was mixed at 50° C. for 1 h. The radiochemical yield of 3* was determined by radio-TLC (iTLC ACN+0.1% TFA, RP-18 TLC 9:1 ACN: H2O+0.1% TFA) as >95%. Purification and solvent change were carried out with a C8 cartridge (500 mg). After washing with water the major product was eluted with 7:3 EtOH:H2O from the cartridge. The last 2 fractions contained ˜16 MBq and ˜10 MBq respectively. The ˜16 MBq fraction had 3×200 μl extracted (˜4 MBq each). These fractions then had 1 competitor added each (1 mg/ml, 10 μl): tris(2-mercaptoethyl)ammonium oxalate, glutathione and Na2S. The mixtures were left at rt and checked by radio-TLC after 5 min, 1 h and 2 d, the only degradation observed was ˜4% after 2 d in the Na2S mixture. The ˜10 MBq fraction was divided into 2×500 μl. The first lot was used to test the stability of 3* in the highly aqueous solvent system necessary for biodistribution studies, this was diluted from 70% EtOH(aq) to ˜10% EtOH(aq) with brine (3.5 ml). […]

[3] = Stability in highly aqueous solvent system for biodistribution studies; type: physicochemical; conditions: diluted from 70% EtOH(aq) to ~10% EtOH(aq) with brine
Protocol: as §1

Volatility test = type: physicochemical; conditions: 70% EtOH(aq), 50° C., dry nitrogen stream 1 h
Protocol: as §1

[4] = Biodistribution in healthy male Wistar rats; type: in vivo
Text: FIG. 5 show biodistribution of compound 3* in healthy male Wistar rats (^197(m)HgCl2: n=4, 3*: n=8; ˜300 kBq per animal; all other organs measured well below 1% ID/g).

For `CCCC[C@]1(O)C2(c3ccccc3)CN3Cc4cccc[c]4[Hg][c]4ccccc4CN(C2)C[C@]1(c1ccccc1)C3` [3*, 9-butyl-8,10-diphenyl-6,10:8,12-dimethanodibenzo[c,f][1,9]diaza[5]mercuracyclotetradecan-9-ol], the “197(m)Hg release (demetallation) and binding to serum proteins” value [1] was “there isn't any observable protein interaction; also recorded: neither 197(m)Hg release (demetallation) nor binding to serum proteins is detectable”, the “degradation observed by radio-TLC” value ([2]; Na2S competitor (1 mg/ml, 10 μl), rt, after 2 d) was ~4% and the “chemical stability against sulfur-containing competitors” value ([2]; excess of glutathione, tris(2-mercaptoethyl)ammonium oxalate and sodium sulfide) was “high chemical stability”. The “stability of the solution by radio-TLC” value [3] was “good stability”, the “loss of activity by evaporation (volatility)” value (Volatility test) was “no observable loss by evaporation” and the “biodistribution, all other organs (not shown in FIG. 5)” value ([4]; healthy male Wistar rats, ~300 kBq per animal) was “below 1 % ID/g”. For the same molecule, the “demetallation and retention in the kidneys” value ([4]; healthy rats, biodistribution and SPECT) was “no indication of demetallation and retention in the kidneys” and the “organ / renal clearance” value ([4]; healthy rats, normal micturition during a 24 h period) was “good organ clearance; also recorded: good renal clearance”.
